Reference: paper PMC3602154 (PLoS ONE, 2013)
Read-outs that look alike come from different tables or passages of the source.

Key:
D5 = D5 (Homo sapiens, UniProt P21918); assay: PDSP radioligand binding, dopamine receptor D5
Source text: (§1) [17] and http://pdsp.med.unc.edu/UNC-CH%20Protocol%20Book.pdf.

A4B4 = A4B4 (Rattus norvegicus, UniProt P09483+P12392); assay: PDSP radioligand binding, nicotinic receptor α4 ß4
Source text: as §1

5-HT2C = target: T1, 5-HT2C (Homo sapiens, UniProt P28335); assay: PDSP radioligand binding, serotonin receptor 5-HT2C
T1 sequence (P28335 33-458): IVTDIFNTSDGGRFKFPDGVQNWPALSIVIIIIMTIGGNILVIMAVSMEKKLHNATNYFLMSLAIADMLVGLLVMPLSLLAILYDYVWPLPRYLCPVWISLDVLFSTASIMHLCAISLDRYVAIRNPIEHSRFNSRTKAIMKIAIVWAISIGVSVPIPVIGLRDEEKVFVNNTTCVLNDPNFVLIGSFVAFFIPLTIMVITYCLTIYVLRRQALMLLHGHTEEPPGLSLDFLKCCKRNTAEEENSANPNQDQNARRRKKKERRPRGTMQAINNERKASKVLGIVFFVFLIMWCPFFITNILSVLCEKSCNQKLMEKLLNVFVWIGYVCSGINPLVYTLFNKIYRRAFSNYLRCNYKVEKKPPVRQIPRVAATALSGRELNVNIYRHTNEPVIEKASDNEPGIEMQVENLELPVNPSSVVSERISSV
Source text: as §1

[1] = target: NMDA Receptor (MK-801 binding site); assay: PDSP radioligand binding, NMDA receptor
Source text: as §1

BZP Rat Brain Site = assay: PDSP radioligand binding, benzodiazepine site on GABA-A; details: Table S1; unit inferred
Source text: as §1

Alpha1B = target: T2, Alpha1B (Homo sapiens, UniProt P35368); assay: PDSP radioligand binding, adrenoceptor α1B
T2 sequence (P35368 1-520): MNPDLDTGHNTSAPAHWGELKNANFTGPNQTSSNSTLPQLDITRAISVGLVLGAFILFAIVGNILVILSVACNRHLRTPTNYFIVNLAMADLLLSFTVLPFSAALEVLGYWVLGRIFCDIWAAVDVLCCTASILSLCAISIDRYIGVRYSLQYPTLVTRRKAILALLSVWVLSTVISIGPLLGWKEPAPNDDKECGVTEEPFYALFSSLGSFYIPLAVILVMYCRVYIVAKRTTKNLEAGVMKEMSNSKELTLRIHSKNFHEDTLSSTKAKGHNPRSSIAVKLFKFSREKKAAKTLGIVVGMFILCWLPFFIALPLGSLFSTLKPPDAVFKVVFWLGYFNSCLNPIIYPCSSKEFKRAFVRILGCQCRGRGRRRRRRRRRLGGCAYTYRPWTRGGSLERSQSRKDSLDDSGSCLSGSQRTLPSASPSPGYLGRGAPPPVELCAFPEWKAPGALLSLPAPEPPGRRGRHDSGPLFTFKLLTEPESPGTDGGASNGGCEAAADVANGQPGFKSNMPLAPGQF
Source text: as §1

CB1 = CB1 (Homo sapiens, UniProt P21554); assay: PDSP radioligand binding, cannabinoid CB-1
CB1, sequence (P21554 whole entry, species assumed): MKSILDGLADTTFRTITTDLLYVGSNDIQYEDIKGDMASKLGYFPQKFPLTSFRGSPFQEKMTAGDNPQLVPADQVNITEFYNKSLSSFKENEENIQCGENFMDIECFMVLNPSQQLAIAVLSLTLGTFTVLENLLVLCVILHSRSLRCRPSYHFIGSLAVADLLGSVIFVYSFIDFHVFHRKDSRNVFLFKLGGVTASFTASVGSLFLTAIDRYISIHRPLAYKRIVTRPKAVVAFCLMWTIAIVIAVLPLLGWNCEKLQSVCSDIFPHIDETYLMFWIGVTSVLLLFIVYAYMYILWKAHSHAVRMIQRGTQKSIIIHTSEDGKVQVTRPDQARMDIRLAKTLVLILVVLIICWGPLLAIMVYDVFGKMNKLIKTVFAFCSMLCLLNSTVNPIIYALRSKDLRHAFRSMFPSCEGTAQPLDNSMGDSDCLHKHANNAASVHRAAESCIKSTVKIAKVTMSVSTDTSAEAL
Source text: as §1

[2] = target: NET (norepinephrine transporter) (Homo sapiens, UniProt P23975); assay: PDSP radioligand binding, norepinephrine transporter; details: for inhibition at 10 µM: quadruplicate, read-out: NET Primary Screen inhibition of binding
NET (norepinephrine transporter), sequence (P23975 whole entry, species assumed): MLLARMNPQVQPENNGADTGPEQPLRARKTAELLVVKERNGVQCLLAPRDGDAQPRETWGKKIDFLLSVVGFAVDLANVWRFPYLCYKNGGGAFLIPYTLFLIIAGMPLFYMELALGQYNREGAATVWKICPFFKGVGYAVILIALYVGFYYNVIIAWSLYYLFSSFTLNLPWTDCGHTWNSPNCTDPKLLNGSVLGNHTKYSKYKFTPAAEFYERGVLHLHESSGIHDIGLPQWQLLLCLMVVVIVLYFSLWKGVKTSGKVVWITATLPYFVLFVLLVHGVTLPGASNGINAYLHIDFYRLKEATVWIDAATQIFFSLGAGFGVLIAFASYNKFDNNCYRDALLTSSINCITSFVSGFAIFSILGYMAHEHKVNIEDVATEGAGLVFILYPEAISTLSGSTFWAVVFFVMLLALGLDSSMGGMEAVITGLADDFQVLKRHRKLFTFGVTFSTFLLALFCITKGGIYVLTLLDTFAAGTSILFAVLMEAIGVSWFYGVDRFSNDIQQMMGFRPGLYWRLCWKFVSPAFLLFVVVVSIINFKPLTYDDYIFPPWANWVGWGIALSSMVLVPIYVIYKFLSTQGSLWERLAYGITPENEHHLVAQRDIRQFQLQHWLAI
Source text: as §1

Beta1 = Beta1 (Homo sapiens, UniProt P08588); assay: PDSP radioligand binding, adrenoceptor ß1
Beta1, sequence (P08588 whole entry): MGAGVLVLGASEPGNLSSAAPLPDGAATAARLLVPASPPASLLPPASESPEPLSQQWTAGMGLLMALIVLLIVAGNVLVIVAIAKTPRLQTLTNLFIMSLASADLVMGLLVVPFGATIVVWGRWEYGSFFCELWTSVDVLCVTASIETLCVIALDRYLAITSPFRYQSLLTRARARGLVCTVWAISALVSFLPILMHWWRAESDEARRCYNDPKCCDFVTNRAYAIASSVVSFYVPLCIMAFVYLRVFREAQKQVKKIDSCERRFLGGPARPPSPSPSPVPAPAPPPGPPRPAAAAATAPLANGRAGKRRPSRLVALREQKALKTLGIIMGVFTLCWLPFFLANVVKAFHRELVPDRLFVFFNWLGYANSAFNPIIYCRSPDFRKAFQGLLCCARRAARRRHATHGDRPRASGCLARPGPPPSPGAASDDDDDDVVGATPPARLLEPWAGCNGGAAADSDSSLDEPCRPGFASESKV
Source text: as §1

H2 = H2 (Homo sapiens, UniProt P25021); assay: PDSP radioligand binding, histamine receptor H2
H2, sequence (P25021 whole entry): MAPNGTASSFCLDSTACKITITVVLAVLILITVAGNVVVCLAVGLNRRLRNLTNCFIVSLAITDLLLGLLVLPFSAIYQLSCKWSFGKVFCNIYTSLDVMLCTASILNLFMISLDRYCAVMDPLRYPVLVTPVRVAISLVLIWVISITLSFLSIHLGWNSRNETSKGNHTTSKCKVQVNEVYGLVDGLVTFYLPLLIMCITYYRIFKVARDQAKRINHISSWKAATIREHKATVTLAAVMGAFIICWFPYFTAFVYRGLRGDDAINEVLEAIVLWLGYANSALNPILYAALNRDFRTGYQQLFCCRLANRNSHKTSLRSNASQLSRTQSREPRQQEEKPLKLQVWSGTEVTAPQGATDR
Source text: as §1

5-HT1A = target: T3, 5-HT1A (Homo sapiens, UniProt P08908); assay: PDSP radioligand binding, serotonin receptor 5-HT1A
T3 sequence (P08908 1-422): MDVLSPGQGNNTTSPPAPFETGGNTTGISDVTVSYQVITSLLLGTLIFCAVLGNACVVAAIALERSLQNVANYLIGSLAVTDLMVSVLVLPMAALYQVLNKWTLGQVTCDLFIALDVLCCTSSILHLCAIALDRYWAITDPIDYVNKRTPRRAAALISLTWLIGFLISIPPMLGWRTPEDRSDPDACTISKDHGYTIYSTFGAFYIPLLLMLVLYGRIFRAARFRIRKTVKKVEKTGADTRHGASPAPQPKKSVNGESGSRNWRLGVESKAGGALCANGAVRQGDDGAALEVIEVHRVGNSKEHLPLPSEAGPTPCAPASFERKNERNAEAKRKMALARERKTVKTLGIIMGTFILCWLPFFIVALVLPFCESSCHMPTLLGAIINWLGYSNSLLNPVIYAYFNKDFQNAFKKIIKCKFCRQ
Source text: as §1

A4B2 = A4B2 (Rattus norvegicus, UniProt P09483+P12390); assay: PDSP nicotinic receptor A4B2**; type: binding
A4B2, sequence (P09483 31-630): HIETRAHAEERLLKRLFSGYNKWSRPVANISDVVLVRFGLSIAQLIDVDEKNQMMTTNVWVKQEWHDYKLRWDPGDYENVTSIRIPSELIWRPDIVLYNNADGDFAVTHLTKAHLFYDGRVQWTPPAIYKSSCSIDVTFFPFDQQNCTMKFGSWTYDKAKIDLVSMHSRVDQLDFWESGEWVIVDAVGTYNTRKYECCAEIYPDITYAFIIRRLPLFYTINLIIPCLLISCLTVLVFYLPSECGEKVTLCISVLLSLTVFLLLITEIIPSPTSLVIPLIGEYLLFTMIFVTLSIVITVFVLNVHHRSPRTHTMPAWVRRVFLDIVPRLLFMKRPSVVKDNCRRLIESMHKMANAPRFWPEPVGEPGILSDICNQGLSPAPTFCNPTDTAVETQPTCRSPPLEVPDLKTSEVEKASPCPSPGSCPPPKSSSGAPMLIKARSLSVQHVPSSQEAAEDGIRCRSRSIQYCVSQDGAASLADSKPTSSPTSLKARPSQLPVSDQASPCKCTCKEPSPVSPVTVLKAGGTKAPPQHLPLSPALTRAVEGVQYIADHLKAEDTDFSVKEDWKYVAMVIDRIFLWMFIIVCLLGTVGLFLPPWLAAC
A4B2, sequence (P12390 25-500): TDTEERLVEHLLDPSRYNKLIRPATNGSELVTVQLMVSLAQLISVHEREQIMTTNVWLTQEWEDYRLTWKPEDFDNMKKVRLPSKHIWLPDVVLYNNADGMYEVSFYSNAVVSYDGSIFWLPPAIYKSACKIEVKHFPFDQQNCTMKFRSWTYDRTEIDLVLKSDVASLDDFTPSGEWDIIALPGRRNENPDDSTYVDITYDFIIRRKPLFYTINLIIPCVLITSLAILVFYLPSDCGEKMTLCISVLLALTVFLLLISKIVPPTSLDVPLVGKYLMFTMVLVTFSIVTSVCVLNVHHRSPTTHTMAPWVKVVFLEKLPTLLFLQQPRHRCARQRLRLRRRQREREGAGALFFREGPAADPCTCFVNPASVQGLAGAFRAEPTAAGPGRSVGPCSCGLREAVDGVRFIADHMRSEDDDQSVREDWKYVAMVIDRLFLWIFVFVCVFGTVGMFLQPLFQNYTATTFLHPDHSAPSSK
Source text: as §1

M1 = target: T4, M1 (Homo sapiens, UniProt P11229); assay: PDSP radioligand binding, muscarinic receptor M1
T4 sequence (P11229 1-460): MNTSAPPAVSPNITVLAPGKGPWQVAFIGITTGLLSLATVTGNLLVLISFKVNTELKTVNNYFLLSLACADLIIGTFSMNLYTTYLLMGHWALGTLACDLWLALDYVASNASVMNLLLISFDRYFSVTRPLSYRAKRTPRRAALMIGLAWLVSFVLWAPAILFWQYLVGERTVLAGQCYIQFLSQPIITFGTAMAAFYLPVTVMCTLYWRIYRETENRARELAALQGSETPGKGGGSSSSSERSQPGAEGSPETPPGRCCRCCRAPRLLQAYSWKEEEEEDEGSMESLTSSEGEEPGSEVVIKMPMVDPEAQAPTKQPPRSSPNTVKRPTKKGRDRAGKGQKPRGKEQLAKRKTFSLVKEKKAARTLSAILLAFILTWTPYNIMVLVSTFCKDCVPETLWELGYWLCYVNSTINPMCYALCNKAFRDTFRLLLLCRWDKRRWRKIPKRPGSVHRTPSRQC
Source text: as §1

M4 = target: T5, M4 (Homo sapiens, UniProt P08173); assay: PDSP radioligand binding, muscarinic receptor M4
T5 sequence (P08173 1-479): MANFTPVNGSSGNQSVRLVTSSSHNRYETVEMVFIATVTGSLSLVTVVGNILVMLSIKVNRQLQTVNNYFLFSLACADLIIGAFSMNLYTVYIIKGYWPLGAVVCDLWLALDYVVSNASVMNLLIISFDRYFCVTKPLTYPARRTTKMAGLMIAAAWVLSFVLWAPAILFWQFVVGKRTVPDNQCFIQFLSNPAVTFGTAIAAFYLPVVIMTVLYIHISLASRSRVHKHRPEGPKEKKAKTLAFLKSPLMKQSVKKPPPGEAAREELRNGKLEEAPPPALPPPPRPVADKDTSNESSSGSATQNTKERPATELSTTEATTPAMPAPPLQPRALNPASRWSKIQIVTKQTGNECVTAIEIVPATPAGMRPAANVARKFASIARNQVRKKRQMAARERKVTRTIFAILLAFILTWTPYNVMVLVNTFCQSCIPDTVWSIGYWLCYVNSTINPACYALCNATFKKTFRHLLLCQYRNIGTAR
Source text: as §1

[3] = Table 2, read-out: NMDA (Ki) (converted)

A4B4, sequence (P09483 31-630): as the sequence (P09483 31-630) above
A4B4, sequence (P12392 21-495): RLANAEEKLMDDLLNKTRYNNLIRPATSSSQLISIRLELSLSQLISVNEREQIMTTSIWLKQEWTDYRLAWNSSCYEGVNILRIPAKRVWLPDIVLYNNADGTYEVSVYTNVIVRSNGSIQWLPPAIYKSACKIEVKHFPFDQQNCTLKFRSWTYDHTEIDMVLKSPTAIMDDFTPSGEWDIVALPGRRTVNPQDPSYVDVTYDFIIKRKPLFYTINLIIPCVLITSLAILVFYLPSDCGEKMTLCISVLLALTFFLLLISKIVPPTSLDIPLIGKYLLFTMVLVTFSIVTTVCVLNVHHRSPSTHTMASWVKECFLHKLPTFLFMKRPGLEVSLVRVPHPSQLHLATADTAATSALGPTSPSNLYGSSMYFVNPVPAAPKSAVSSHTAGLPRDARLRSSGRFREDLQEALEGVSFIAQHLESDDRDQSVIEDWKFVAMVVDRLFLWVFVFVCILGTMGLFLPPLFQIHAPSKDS
D5, sequence (P21918 whole entry): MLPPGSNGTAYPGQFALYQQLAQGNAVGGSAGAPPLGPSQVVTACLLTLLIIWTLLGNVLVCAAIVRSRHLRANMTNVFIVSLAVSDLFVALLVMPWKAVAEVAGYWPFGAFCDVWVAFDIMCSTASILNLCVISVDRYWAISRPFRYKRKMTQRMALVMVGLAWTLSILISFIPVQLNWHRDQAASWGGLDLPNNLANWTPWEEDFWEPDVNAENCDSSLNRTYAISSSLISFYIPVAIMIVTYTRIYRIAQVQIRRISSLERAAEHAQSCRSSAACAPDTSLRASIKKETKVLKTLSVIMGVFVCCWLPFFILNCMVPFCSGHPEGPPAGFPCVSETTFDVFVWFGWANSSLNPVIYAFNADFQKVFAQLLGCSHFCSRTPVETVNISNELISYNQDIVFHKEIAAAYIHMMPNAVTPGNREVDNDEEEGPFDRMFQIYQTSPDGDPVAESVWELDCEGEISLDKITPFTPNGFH

Row | SMILES | Ki (D5) [µM] | Ki (A4B4) [µM] | Ki (5-HT2C) [µM] | Ki ([1]; Figure 3, N = 3 separate determinations, read-out: Ki in NMDA receptor assay) [µM] | Ki ([1]; Table S1, unit inferred, read-out: Ki NMDA) [µM] | Ki (BZP Rat Brain Site) [µM] | Ki (Alpha1B) [µM] | Ki (CB1) [µM] | Ki [2] [µM] | inhibition at 10 µM [2] [%] | Ki (Beta1) [µM] | Ki (H2) [µM] | Ki (5-HT1A) [µM] | Ki (A4B2) [µM] | Ki (M1) [µM] | Ki (M4) [µM] | NMDA pKi +/− SD ([1]; Table 2) | Ki [1, 3] [µM]
1 | CCNC1(c2cccc(OC)c2)CCCCC1=O (racemic) [Methoxetamine, (RS)-2-(ethylamino)-2-(3-methoxyphenyl)cyclohexanone] | > 10 | > 10 | > 10 | 0.337 | 0.338 | > 10 | > 10 | > 10 | > 10 | < 50 | > 10 | > 10 | > 10 | > 10 | > 10 | > 10 |  | 
2 | COc1cccc(C2(N3CCCCC3)CCCCC2)c1 [3-MeO-PCP, 1-[1-(3-methoxyphenyl)cyclohexyl]piperidine] | > 10 | > 10 | > 10 |  |  | > 10 | > 10 | > 10 | > 10 | < 50 | > 10 | 2.1 | > 10 | > 10 | > 10 | > 10 | 7.69±0.08 | 0.02
3 | COc1ccc(C2(N3CCCCC3)CCCCC2)cc1 [4-MeO-PCP, 1-[1-(4-methoxyphenyl)cyclohexyl]piperidine] | > 10 | > 10 | > 10 |  |  | > 10 | > 10 | > 10 | 0.713 |  | > 10 | > 10 | > 10 | > 10 | > 10 | > 10 | 6.39±0.06 | 0.404
